For test [1], the system named is human urether tissue. In words: Relaxation of noradrenaline-contracted human isolated urether tissue (isometric tension recording). As to conditions: human urether contracted with noradrenaline, 0.0001-1 μM, n=3. How it is done:
(§1) Human corpus cavernosum and urether were obtained from discarded tissues from surgeries, which were placed in ice-cold Krebs solution for rapid transport to the laboratory.
(§2) Cavernosal strips, pulmonary artery, and urether were mounted in 10 ml organ chambers containing Kreb's solution at 37° C., pH 7.4 continuously bubbled with a mixture of 95% O2 and 5% CO2. The tissues were stretched to a resting force of 5 mN and allowed to equilibrate for 60 min. Changes in isometric force were recorded using a PowerLab 4/30 data acquisition system (Chart software, version 7.0; ADInstruments, Colo. Springs, Colo.). Cumulative concentration-response curves to compound 2 (named BL 106 in FIGS. 1, 2 and 3) (0.001-10 μM) were obtained in cavernosal strips, pulmonary artery rings, and urether contracted with noradrenaline (NOR 10 μM) (Sigma, St. Louis, Mo.). Concentration response curves to compound 2 (denoted BL 106 in FIGS. 1, 2 and 3) were constructed for each sample. For pulmonary artery, concentration response curves to compound 2 were also constructed in the presence or absence of the soluble guanylate cyclase inhibitor 1H-[1,2,4]Oxadiazolo[4,3-a]quinoxalin-1-one (ODQ 10 μM) (Sigma, St. Louis, Mo.). Control rings (treated with 40 mM DMSO) were also ran in parallel with experimental strips and rings.
Noradrenaline caused a sustained contraction in the human urether tissue.

Test [2] deals with rabbit corpus cavernosum. In words: Relaxation of noradrenaline-contracted rabbit isolated corpus cavernosum (isometric tension recording). How it is done:
as §2, with “Male New Zealand White rabbits (2-2.5 kg) were used for penis and pulmonary artery tissues, which were excised and transferred to ice-cold Kreb's solution. Two strips and four rings were obtained from each corpus cavernosum (CC) and pulmonary artery, respectively. Cavernosal” for “Cavernosal”, “rings. Noradrenaline (3 or 10 μM) caused a sustained contraction in rabbit corpus cavernosum (13.8 mN).” for “rings.”

The subject of test [3] is human corpus cavernosum. In words: Relaxation of noradrenaline-contracted human isolated corpus cavernosum (isometric tension recording). To be noted: human corpus cavernosum contracted with noradrenaline, 0.0001-1 μM, n=3. How it is done:
as §1, §2
Noradrenaline caused a sustained contraction in the human corpus cavernosum.

The subject of test [4] is rabbit pulmonary artery. Description: Relaxation of noradrenaline-contracted rabbit isolated pulmonary artery rings (isometric tension recording). How it is done: as §2, with “Male New Zealand White rabbits (2-2.5 kg) were used for penis and pulmonary artery tissues, which were excised and transferred to ice-cold Kreb's solution. Two strips and four rings were obtained from each corpus cavernosum (CC) and pulmonary artery, respectively. Cavernosal” for “Cavernosal”, “rings. Noradrenaline (3 or 10 μM) caused a sustained contraction in the rabbit pulmonary artery (17.4 mN).” for “rings.”

[5] abbreviates: read-out: pEC50 of relaxation (converted).

Like-named read-outs stand apart in the source and are kept apart here.

Consider `CN1CC(=O)N2C(=C(c3c[nH]c4ccccc34)OC2c2ccc3c(c2)OCO3)C1=O` (racemic) [Compound 2, (R,S)-3-(1,3-benzodioxol-5-yl)-1-(1H-indol-3-yl)-7-methyl-6,7-dihydro[1,3]oxazolo[3,4-a]pyrazine-5,8-dione], for which the Emax in test [1] was determined as 49%; in test [2] (Oryctolagus cuniculus, rabbit corpus cavernosum contracted with noradrenaline, n=3) it was 91%; in test [3], 71%; in test [4] (Oryctolagus cuniculus, rabbit pulmonary artery rings contracted with noradrenaline, 0.001-10 μM, n=3) it was 62%. The EC50 in test [1] (setting [5]) was 513 nM; in test [2] (Oryctolagus cuniculus, rabbit corpus cavernosum contracted with noradrenaline, n=3, read-out: EC50 of relaxation (bracketed after pEC50) (converted)), 1200 nM; in test [2] (Oryctolagus cuniculus, rabbit corpus cavernosum contracted with noradrenaline, n=3, read-out: pEC50 of relaxation (converted)) it was 1200 nM; in test [3] (setting [5]) it was 22.4 nM; in test [4] (Oryctolagus cuniculus, rabbit pulmonary artery rings contracted with noradrenaline, 0.001-10 μM, n=3, read-out: pEC50 of relaxation (converted)), 589 nM; in test [4] (Oryctolagus cuniculus, rabbit pulmonary artery rings contracted with noradrenaline, n=3, read-out: EC50 of relaxation (bracketed after pEC50) (converted)) it was 588 nM.
Consider `NC[C@H](O)c1ccc(O)c(O)c1` [Noradrenaline, noradrenaline, reference compound], for which the sustained contraction in test [2] (rabbit corpus cavernosum, noradrenaline 3 or 10 μM) was found to be 13.8 mN; in test [4] (rabbit pulmonary artery, noradrenaline 3 or 10 μM), 17.4 mN.

A word on the Emax: it is the size of the effect at its maximum, as opposed to the concentration needed.

Source of the values: patent publication US8338432B2, “Derivatives of 6,7-dihydro-3H-oxazolo[3,4-a]pyrazine-5,9-dione as PDE-5 inhibitors” (Biolab Sanus Farmaceutica Ltda., priority 2010, dated 2012).
